Assays:
mGlu5 receptor = molecular target: T1, mGlu5 receptor (Rattus norvegicus, UniProt P31424); assay: Radioligand binding assay at metabotropic glutamate receptor 5 in rat brain; conditions: [3H]MPEP, rat forebrain membranes; read-out: affinity (Ki) for mGlu5 receptor
T1 construct: from tissue; host or cells: rat forebrain (cortex, striatum and hippocampus) membranes, male Sprague Dawley rats
Procedure: Radioligand Binding Assay at Metabotropic Glutamate Receptor 5 in Rat Brain.
a) Membrane preparation: male Sprague Dawley rats (200-300 g, Charles River, Italy) were killed by cervical dislocation and the forebrain (cortex, striatum and hippocampus) was homogenized (2×20 sec) in 50 vols of cold 50 mM Tris buffer pH 7.4, using a Politron homogenizer (Kinematica). Homogenates were centrifuged at 48000×g for 15 min, resuspended in 50 vols of the same buffer, incubated at 37° C. for 15 min and centrifuged and resuspended two more times. The final pellets were frozen and stored at −80° C. until use.
b) Binding assay: pellets from rat forebrain were resuspended in 100 vols of 20 mM HEPES, 2 mM MgCl2, 2 mM CaCl2, pH 7.4. The membranes were incubated in a final volume of 1 ml for 60 min at 25° C. with 4 nM [^3H]MPEP in the absence or presence of competing drugs. Non-specific binding was determined in the presence of 10 μM MPEP (Spooren W. et al., Trends Pharmacol Sci. 22, 331-337, 2001). The incubation was stopped by the addition of cold Tris buffer pH 7.4 and rapid filtration through 0.5% polyethyleneimine pretreated Filtermat 1204-401 (Wallac) filters. The filters were then washed with cold buffer and the radioactivity retained on the filters was counted by liquid scintillation spectrometry. […]

conscious rats = assay: Effect on cystometry in conscious rats (bladder volume capacity); assay type: in vivo, rat; conditions: for MED (Minimal Effective Dose that induces statistically significant increase of bladder volume capacity): oral administration; for increase of bladder volume capacity: orally
Procedure: Male Sprague-Dawley rats [Crl: CD® (SD) IGS BR] of 300-400 g b.w. supplied by Charles River Italia were used. The animals were housed with free access to food and water and maintained on a forced 12-hour-light/12-hour-dark cycle at 22-24° C. of temperature, except during the experiment. To quantify urodynamic parameters in conscious rats, cystometrographic studies were performed according to the procedure previously reported (Guarneri et al., Pharmacol. Res. 24: 175, 1991).
Briefly, the rats were anaesthetised by intraperitoneal administration of 3 ml/kg of Equithensin solution (pentobarbital 30 mg/kg and chloral hydrate 125 mg/kg) and placed in a supine position. An approximately 10 mm long midline incision was made in the shaved and cleaned abdominal wall. The urinary bladder was gently freed from adhering tissues, emptied and then cannulated via an incision in the bladder body, using a polyethylene cannula (0.58 mm internal diameter, 0.96 mm external diameter) which was permanently sutured with silk thread. The cannula was exteriorised through a subcutaneous tunnel in the retroscapular area, where it was connected to a plastic adapter in order to avoid the risk of removal by the animal. For drug testing, the rats were utilised one day after implantation.
On the day of the experiment, the rats were placed in modified Bollman cages, i.e., restraining cages that were large enough to permit the rats to adopt a normal crouched posture, but narrow enough to prevent turning around. […] The intraluminal-pressure signal during infusion of saline into the bladder (cystometrogram) was continuously recorded on a polygraph (Rectigraph-8K San-ei with BM614/2 amplifier from Biomedica Mangoni) or stored on PC by data acquisition system (PowerLab, Chart 4 software, AD Instruments). From the cystometrogram, bladder volume capacity (BVC) was evaluated. […] Basal BVC value was evaluated as the mean of the values observed in the cystometrograms recorded in an initial period of 30-60 minutes. […] The bladder infusion restarted and changes in BVC were evaluated from the mean values obtained in the cystometrograms observed during 1, 2, and 3 hours after treatment. […]
Each experimental group was composed of 4-11 animals. All data were expressed as mean±standard error. The percent change of BVC versus the basal value, as well as Δ value (difference in ml) of BVC (BVC at time “x” minus basal value), were also evaluated for each rat/time. […]
Statistical analysis on BVC values, as well as on Δ values, was performed by S.A.S./STAT software, version 6.12. The difference between vehicle and active treatment effect was evaluated on Δ values of BVC, whereas the difference between the values at different times versus the basal values was evaluated on original BVC data.

T1 sequence (P31424 21-1203): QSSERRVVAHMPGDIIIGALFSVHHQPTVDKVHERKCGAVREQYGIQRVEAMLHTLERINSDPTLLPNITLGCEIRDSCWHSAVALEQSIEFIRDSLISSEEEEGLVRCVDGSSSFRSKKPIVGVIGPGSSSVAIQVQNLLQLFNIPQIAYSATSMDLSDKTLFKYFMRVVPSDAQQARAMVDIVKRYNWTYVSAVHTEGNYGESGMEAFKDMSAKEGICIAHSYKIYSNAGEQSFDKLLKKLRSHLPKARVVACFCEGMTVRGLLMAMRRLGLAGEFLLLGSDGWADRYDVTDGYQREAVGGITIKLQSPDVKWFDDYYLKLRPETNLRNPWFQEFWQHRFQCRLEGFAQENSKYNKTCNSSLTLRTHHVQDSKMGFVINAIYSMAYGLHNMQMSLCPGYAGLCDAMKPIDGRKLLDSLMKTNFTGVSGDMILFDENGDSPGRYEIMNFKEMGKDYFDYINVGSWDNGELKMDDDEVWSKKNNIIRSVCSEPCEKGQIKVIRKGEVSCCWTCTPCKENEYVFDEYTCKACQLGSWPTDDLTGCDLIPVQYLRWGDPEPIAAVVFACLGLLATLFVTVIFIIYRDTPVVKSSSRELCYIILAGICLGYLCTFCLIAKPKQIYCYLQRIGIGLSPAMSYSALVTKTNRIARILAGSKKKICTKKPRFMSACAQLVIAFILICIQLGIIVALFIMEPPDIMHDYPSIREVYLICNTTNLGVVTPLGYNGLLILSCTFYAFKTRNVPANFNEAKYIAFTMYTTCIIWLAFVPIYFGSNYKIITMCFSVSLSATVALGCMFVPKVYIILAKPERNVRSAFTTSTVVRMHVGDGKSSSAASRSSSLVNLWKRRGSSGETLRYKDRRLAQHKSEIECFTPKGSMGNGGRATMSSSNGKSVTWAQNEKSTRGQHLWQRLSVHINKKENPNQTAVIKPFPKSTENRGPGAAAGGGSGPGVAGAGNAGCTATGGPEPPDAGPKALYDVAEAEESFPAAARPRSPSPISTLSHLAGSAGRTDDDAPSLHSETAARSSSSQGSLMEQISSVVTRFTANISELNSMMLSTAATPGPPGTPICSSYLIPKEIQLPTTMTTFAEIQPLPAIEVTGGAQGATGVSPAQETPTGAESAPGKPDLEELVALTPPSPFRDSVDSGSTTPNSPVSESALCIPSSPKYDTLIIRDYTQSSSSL

| Ki (mGlu5 receptor) | Structure (SMILES) | MED (Minimal Effective Dose that induces statistically significant increase of bladder volume capacity) (conscious rats) | increase of bladder volume capacity (conscious rats; 1 mg/kg) | increase of bladder volume capacity (conscious rats; 3 mg/kg, statistically significant from the vehicle group after 3 hours from treatment) |
| --- | --- | --- | --- | --- |
| 1.49 nM | CON(C)C(=O)N1CCC2(CC(C#Cc3cccc(Cl)c3)=NO2)C1 (stereo not drawn) [Example 110, 7-[2-(3-Chlorophenyl)ethynyl]-N-methoxy-N-methyl-9-oxa-3,8-diazaspiro[4.4]non-7-ene-3-carboxamide] | – | – | – |
| – | Clc1cccc(C#CC2=NOC3(CCC4(CCCO4)CC3)C2)c1 (single isomer, unassigned) [Example 78, 3-[(3-Chlorophenyl)ethynyl]-1,9-dioxa-2-azadispiro[4.2.4.2]tetradec-2-ene] | 3 mg/kg | – | – |
| – | Cc1nc(C#Cc2cccnc2)cs1 [MTEP] | 3 mg/kg | only a slight increase | sustained increase |
| 3.88 nM | Cc1ccc([N+](=O)[O-])c(N2CCC3(CC2)CC(C#Cc2cccc(Cl)c2)=NO3)n1 [Example 12, 3-[(3-Chlorophenyl)ethynyl]-8-(6-methyl-3-nitropyridin-2-yl)-1-oxa-2,8-diazaspiro[4.5]dec-2-ene] | – | – | – |
